{"source": "patent US5470873A", "about": "“Diabetes prevention and treatment using gamma-pyrones” (University Technologies International, Inc., priority 1994, dated 1995)", "key": {"[1]": {"assay": "Blood glucose levels in GK rats (NIDDM model), glucose tolerance test", "type": "in vivo", "experimental": "To see whether DPD, alone or in combination with other modalities, had any effect on the control of blood glucose levels, GK rats were treated daily from 4 to 14 weeks of age with one of the following: At 14 weeks of age, glucose tolerance tests were performed by intraperitoneal injection of 2 mg glucose/gm body weight. Blood glucose levels were determined 60 minutes later using methods previously described^64-67. Rats receiving DPD alone were intubated daily with a 1.18 % (w/v) solution of DPD in PBS. At 4 weeks of age, rats received 0.5 ml of the 1.18% solution of DPD. This was increased by 0.1 ml/week so that rats at 14 weeks of age received 1.5 ml of the 1.18% solution of DPD. Control rats received the same volume of PBS only. Rats receiving OSA alone were intubated daily with an aqueous extract of OSA. The extract was prepared by adding 10% dried powdered OSA plant to boiling water, keeping the mixture at the boiling point in a sealed container for 3-4 hours, removing the supernatant, then cooling it for use in intubating the GK rats. This supernatant will be referred to as 10% OSA extract. At 4 weeks of age, rats received 0.5 ml of the 10% OSA extract. This was increased by about 0.15 ml/week so that rats at 14 weeks of age received 2.0 ml of the 10% OSA extract. Control rats received the same volume of PBS. […]"}, "pancreatic beta cells": {"system": "pancreatic beta cells", "assay": "Destruction of pancreatic beta cells detected by fluorescein labelled anti-insulin antibody", "type": "in vivo, NOD mice", "set-up": "key to Diabetes: \"+\" indicates \"yes\"; \"-\" indicates \"no\"", "experimental": "Fluorescein isothiocyanate-labelled anti-insulin antibody was prepared as described previously 45. Briefly, gamma globulin that was prepared by immunizing guinea pigs with glutaraldehyde polymerized porcine insulin and purified by Sephadex G-200 chromatography was purchased from Index Corp., Glenwood, Ill, USA. This material was labelled with FITC. Unconjugated FITC was removed by dialysis against 0.01M PBS (pH 7.5) and by gel filtration through a Sephadex G-25. The labelled gamma globulin was subsequently absorbed with acetone-treated mouse liver powder to eliminate nonspecific fluorescence. Pancreatic sections (from 25% of each pancreas) prepared from maltol-treated and untreated NOD mice were stained with FITC-labelled anti-insulin antibody and examined under a fluorescent microscope as described elsewhere 47.48. Briefly, pancreatic sections on the slides were flooded with FITC-labelled anti-insulin antibody and incubated in a humidity chamber overnight at 4° C. in the dark. The slides were then washed in three changes of cold PBS for a total of 20 min to remove any unattached antibody, mounted with Elvanol and observed with an Olympus fluorescence microscope ^45. As it is difficult to determine whether the lymphocytes observed in the pancreatic islets are contributing to beta cell destruction, another method was used to determine whether beta cells from maltol-treated or untreated NOD mice were destroyed or not. Sections of pancreatic islets were stained with a fluorescein-labelled anti-insulin antibody and the number of insulin-containing beta cells in the islets was estimated."}, "[2]": {"conditions": "30% to 69% of beta cell destruction, individual DPD-treated NOD mice (animal 1-5)"}, "[3]": {"conditions": "less than 30% of beta cell destruction, individual DPD-treated NOD mice (animal 1-5)"}, "[4]": {"conditions": "no destruction of beta cells, individual DPD-treated NOD mice (animal 1-5)"}, "[5]": {"conditions": "over 70% of beta cell destruction, individual DPD-treated NOD mice (animal 1-5)"}}, "note": "Where “and” joins values, the source holds several entries; their conditions need not be identical. Equal values may be shown once.", "data": [{"smiles": "Cc1occc(=O)c1O", "note": "[DPD, maltol]", "values": [{"measurement": "Blood Glucose", "setting": "[1]; DPD 1.18% (w/v) in PBS oral daily, 4 to 14 weeks of age, 60 minutes after i.p. 2 mg glucose/gm, PBS control 389 ± 23", "value": "349 ± 42", "unit": "mg/dL"}, {"measurement": "Effect on control of blood glucose levels (in words)", "setting": "[1]; GK rats", "value": "some reduction of blood glucose levels"}, {"measurement": "Moderate Destruction of beta cells, islets / islets examined", "setting": "pancreatic beta cells; [2]", "value": "4/16 and 5/17 and 3/18 and 4/19"}, {"measurement": "Moderate Destruction of beta cells, percent of islets", "setting": "pancreatic beta cells; [2]", "value": "25% and 29% and 17% and 21%"}, {"measurement": "Diabetes", "setting": "pancreatic beta cells; Table 3, individual DPD-treated NOD mice", "value": "-"}, {"measurement": "Destruction of pancreatic beta cells (in words)", "setting": "pancreatic beta cells; compared to untreated, diabetic NOD mice", "value": "significantly lower"}, {"measurement": "Mild destruction, share of examined islets", "setting": "pancreatic beta cells; group of DPD-treated NOD mice", "value": 45, "unit": "%"}, {"measurement": "Moderate destruction, share of examined islets", "setting": "pancreatic beta cells; group of DPD-treated NOD mice", "value": 23, "unit": "%"}, {"measurement": "No destruction, share of examined islets", "setting": "pancreatic beta cells; group of DPD-treated NOD mice", "value": 12, "unit": "%"}, {"measurement": "Severe destruction, share of examined islets", "setting": "pancreatic beta cells; group of DPD-treated NOD mice", "value": 20, "unit": "%"}, {"measurement": "Mild Destruction of beta cells, islets / islets examined", "setting": "pancreatic beta cells; [3]", "value": "7/16 and 7/17 and 9/18 and 9/19"}, {"measurement": "Mild Destruction of beta cells, percent of islets", "setting": "pancreatic beta cells; [3]", "value": "43% and 41% and 50% and 47%"}, {"measurement": "Intact, islets / islets examined", "setting": "pancreatic beta cells; [4]", "value": "2/16 and 2/17 and 2/18 and 2/19"}, {"measurement": "Intact, percent of islets", "setting": "pancreatic beta cells; [4]", "value": "13% and 12% and 11%"}, {"measurement": "Severe Destruction of beta cells, islets / islets examined", "setting": "pancreatic beta cells; [5]", "value": "3/16 and 3/17 and 4/18 and 4/19"}, {"measurement": "Severe Destruction of beta cells, percent of islets", "setting": "pancreatic beta cells; [5]", "value": "19% and 18% and 22% and 21%"}]}]}
